The nature of data set [1]: Antifeedant activity in Tineola bisselliella larvae assessed as loss in wool weight at 0.1% w/w relative to control. In kind it is functional.
Data set [2] can be described thus: Cytotoxicity against monkey BSC cells assessed as zone of inhibition at 30 ug/disc. In kind it is cell-based, Macaca mulatta. As to conditions: rhesus monkey.
Data set [3] deals with Tineola bisselliella. Nature of the data set: Survival of Tineola bisselliella larvae at 0.1% w/w relative to control. In kind it is functional.
The test system of data set [4] is Eurhopalus australis. Nature of the data set: Survival of Anthrenocerus australis larvae at 0.05% w/w relative to control. The data set is classed as functional.
A short description of data set [5]: Antifeedant activity in Anthrenocerus australis larvae assessed as loss in wool weight at 0.05% w/w relative to control. The data set is classed as functional.
The nature of data set [6]: Antifeedant activity in Anthrenocerus australis larvae assessed as loss in wool weight at 0.1% w/w relative to control. In kind it is functional.
Data set [7] relates to Eurhopalus australis. The data set can be described thus: Survival of Anthrenocerus australis larvae at 0.1% w/w relative to control. The data set is classed as functional.
Data set [8] deals with Eurhopalus australis. Nature of the data set: Survival of Anthrenocerus australis larvae at 0.025% w/w relative to control. In kind it is functional.
Data set [9] in a line: Antifeedant activity in Anthrenocerus australis larvae assessed as loss in wool weight at 0.025% w/w relative to control. The data set is classed as functional.
The nature of data set [10]: Cytotoxicity against monkey BSC cells assessed as zone of inhibition at 60 ug/disc. In kind it is cell-based, Macaca mulatta. The following applies: rhesus monkey.
Data set [11] can be described thus: Antifeedant activity in Anthrenocerus australis larvae assessed as loss in wool weight at 0.01% w/w relative to control. In kind it is functional.
For data set [12], the system named is Tineola bisselliella. Nature of the data set: Antifeedant activity in Tineola bisselliella larvae assessed as loss in wool weight at 0.01% w/w relative to control. The data set is classed as functional.
Data set [13] has as its system Tineola bisselliella. The data set can be described thus: Survival of Tineola bisselliella larvae at 0.01% w/w relative to control. The data set is classed as functional.
Data set [14] deals with Eurhopalus australis. The data set can be described thus: Survival of Anthrenocerus australis larvae at 0.01% w/w relative to control. The data set is classed as functional.

Some results are limits rather than exact numbers.

As for `CC(=O)OC(C(=O)C=C(C)C)[C@]12[C@@H](OC(C)=O)O[C@@H]3C=C(C)[C@H]1C[C@@H]32` (stereo partly drawn) [CLAVIGERIN A], the Activity in data set [1] amounted to 2%. For the same molecule, the “inhibition zone (IZ)” value in data set [2] was found to be 1 mm. In the data set with Tineola bisselliella [3], this molecule yielded a survival at 0.1 % strength of 95%.

For the molecule `CC(=O)O[C@H]1O[C@@H]2C=C(C)[C@H]3C[C@@H]2[C@@]13CC(=O)C=C(C)C` [CLAVIGERIN B], the survival at 0.05 % strength in the data set with Eurhopalus australis [4] was 98%. The Activity in [1] is -74%; in data set [5], -79%; in [6] it was -78%; in data set [9], -34%. Besides, the figures for the survival at 0.1 % strength in the data set with Eurhopalus australis [7] and in the data set with Tineola bisselliella [3] were 95% and 27%, respectively. The survival at 0.025 % strength with Eurhopalus australis [8] is 98%. In [2], the “inhibition zone (IZ)” value is 1 mm.

The molecule `CC(=O)O[C@H]1O[C@@H]2C=C(C)[C@H]3C[C@@H]2[C@@]13CC(=O)CC(C)C` [CLAVIGERIN C] displayed a survival at 0.05 % strength with Eurhopalus australis [4] of 97%. In addition, the Activity in [1] was -95%; in data set [5] it was -62%; in [6], -86%; in [9], -50%. Moreover, the figures for the survival at 0.1 % strength in the data set on Eurhopalus australis [7] and in the data set on Tineola bisselliella [3] were 96% and 5%, respectively. Further, the survival at 0.025 % strength with Eurhopalus australis [8] turned out to be 98%. Moreover, in data set [2], the “inhibition zone (IZ)” value is over 4 mm.

Turning to `CO[C@H]1O[C@@H]2C=C(C)[C@H]3C[C@@H]2[C@@]13CC(=O)CC(C)C` [METHOXY CLAVIGERIN C], in data set [10], the “inhibition zone (IZ)” value turned out to be 1 mm. Also, the Activity in data set [1] is -12%. Moreover, the survival at 0.1 % strength in the data set on Tineola bisselliella [3] turned out to be 86%.

As for `CC1(C)C(C=C(Cl)Cl)C1C(=O)OCc1cccc(Oc2ccccc2)c1` (stereo not drawn) [PERMETHRIN], the Activity (in data set [11]; with Tineola bisselliella [12]) was -100% in each case. Moreover, the survival at 0.01 % strength in the data set on Tineola bisselliella [13] was determined as 0%; in the data set with Eurhopalus australis [14], 96%.

Source of the values: ChEMBL document CHEMBL1144787, “Insect antifeedant sesquiterpene acetals from the liverwort Lepidolaena clavigera. 2. structures, artifacts, and activity” (J Nat Prod, 2008).
